Reference: US7494784B2, “Method of treating cell-migration conditions or diseases” (Wisconsin Alumni Research Foundation, priority 2003, dated 2009)

Tests used:
Src family kinases = assay: Tyrosine phosphorylation of PIPKIγ661 in cells with Src-specific inhibitor; type: cell-based
From the text: In the FAK signaling pathway, Src family tyrosine kinases bind to and are activated by FAK, playing a fundamental role in focal adhesion organization (Parsons, et al. (2000) Oncogene 19:5606-5613; Cobb, et al (1994) Mol. Cell. Biol. 14:147-155; Schaller, et al. (1994) Mol. Cell. Biol. 14:1680-1688; Schaller, et al. (999) Mol. Cell. Biol. 10:3489-3505). To determine if Src family kinases phosphorylate PIPKIγ661, Src-specific inhibitor PP2 was employed. […] PIPKIγTyr^649->Phe is efficiently phosphorylated by c-Src.
HEK 293T cells and NRK cells were cultured in Dulbecco's modified Eagle's medium (DMEM) (Mediatech, Inc., Herndon, Va.) supplemented with 10% fetal bovine serum (INVITROGEN™, Carlsbad, Calif.) and antibiotics. NRK cells were transfected using FUGENE™ 6 (Roche, Indianapolis, Ind.) according to manufacturer's instructions for 24 hours. […]
Immunoprecipitation was performed using standard methods (Zhang, et al. (1997) J. Biol. Chem. 272:17756-17761). […] The immunocomplexes were washed with Buffer A, separated by SDS-polyacrylamide gel electrophoresis (SDS-PAGE), and analyzed as indicated. […]

HEK293T cells = assay: Co-immunoprecipitation of talin with PIPKIγ661 from suspended HEK293T cells after stimulation; type: cell-based; conditions: stimulated
Protocol: The association between PIPKIγ661 and talin was also regulated by adhesion to type I collagen. […] However, in suspended cells, the PIPKIγ661 association with talin was restored when cells were stimulated with lysophosphatidic acid (LPA) or platelet-derived growth factor (PDGF).
Immunoprecipitation was performed using standard methods (Zhang, et al. (1997) J. Biol. Chem. 272:17756-17761). Briefly, transfected HEK293T cells were harvested and lysed in Buffer A (50 mM Tris-HCl, pH 7.5, 150 mM NaCl, 0.1-1.0% NP-40, 5.0 mM NaF, 2 mM Na3VO4, 4 mM Na2P2O7, 1 mM EDTA, 0.1 mM EGTA, 1 mM phenylmethyl sulphonyl fluoride (PMSF), 10% glycerol), centrifuged and incubated with protein A—Sepharose and 5 μg anti-HA, anti-c-Myc, anti-Flag, anti-PIPKIγ or anti-talin antibody as indicated at 4° C. for 4 hours to overnight. The immunocomplexes were washed with Buffer A, separated by SDS-polyacrylamide gel electrophoresis (SDS-PAGE), and analyzed as indicated. For the kinase assay, the immunocomplexes were washed and stored in kinase buffer.
Transfected HEK 293T cells were washed with phosphate-buffer saline (PBS) and detached with 0.25% trypsin at 37° C. The cells were harvested and washed with PBS, and suspended in serum-free DMEM at 37° C. for 1 hour. […]

GST-talin head = biological target: T1, GST-talin head (Homo sapiens, UniProt Q9Y490); assay: GST pull-down competition: displacement of His-β1-integrin tail from GST-talin head; type: binding; conditions: for binding affinity to talin of phosphorylated β1-integrin peptides: competing integrin tail binding from talin; for binding affinity for talin compared with unphosphorylated peptide PN: binding assay between talin and integrin (FIG. 2)
T1 construct: Human talin1 head region (1-435) was cloned from HEK293T cells by PCR and subcloned into pET42; made in house; host or cells: E. coli BL21(DE3)
Protocol: Talin interactions were assessed by GST pull-down using recombinant GST-talin head, His-PIPKIγ635 C-terminus, His-PIPKIγ661 wild-type or Tyr to Phe mutant C-terminus, and His-β1-integrin tail. […] Peptides containing the PIPKIγ661/talin binding sequence (Di Paolo, et al. (2002) supra) were designed to include phosphorylated Tyr^644, phosphorylated Tyr^649, and dual phosphorylated Tyr^644 and Tyr^649.
In a screening assay to identify an agent which modulates the activity of PIPKIγ661 as defined by the binding interaction between PIPKIγ661 and talin, the step of detecting the activity of PIPKIγ661 is carried out by detecting and measuring the binding of PIPKIγ661 to talin. The detection and measurement of this binding interaction will be dependent on the type of screening assay performed and the labels used. Such screening assays to detect binding between two proteins in the presence of a test agent are well-known in the art. […] An exemplary binding assay of this type was conducted using PIPKIγ661 peptides of the sequence Cys-Asp-Glu-Arg-Scr-[…](peptide designated PN; SEQ ID NO:12) which are encompassed within the C-terminal 25 amino acid residues of PIPKIγ661 and interact with talin at the same site as integrin. […] Fluorescent probes may be linked to the cysteine residue using conventional thiol or thiolester linkages. […] In this assay, an agent which is an inhibitor of the interaction between PIPKIγ661 and talin blocks binding of a peptide of SEQ ID NO:12 and changes the fluorescent emission anisotropy as compared to a control (e.g., binding in the absence of the inhibitor).
(§1) Purified GST-talin head proteins were incubated with PIPKIγ661 tails or β1-integrin tail, together with Glutathione SEPHAROSE™ 4 Fast Flow (Amersham Biosciences, Piscataway, N.J.), in Buffer B (PBS, 0.2% NP-40, 2 mM DTT) at 4° C. for 4 hours. The beads were washed three times with Buffer B and analyzed by western blot. For competition assays, GST-talin head proteins were incubated with peptides or competing proteins for 2 hours, then the binding proteins were added and the mixtures were incubated for another 4 hours.

GST-talin Arg^358->Gln = GST-talin Arg^358->Gln (Homo sapiens, UniProt Q9Y490, R358Q); conditions: peptide competing His-PIPKIγ661 binding
From the text: (§2) From structural studies of integrin binding to talin, a conserved tryptophan in β-integrin tail is positioned near two basic residues, Lys^357 and Arg^358 of talin F3 lobe (Garcia-Alvarez, et al. (2003) supra). […] The role of PIPKIγ661 phosphorylation was examined by using phosphorylated peptides to compete His-PIPKIγ661 binding to wild-type or mutant GST-talin. […] To further analyze this, β1-integrin peptides phosphorylated at Thr of Trp-Asp-Thr and at Tyr of Asn-Pro-Ile-Tyr (SEQ ID NO: 1) were synthesized and used to compete integrin tail binding from talin.
(§3) Human talin1 head region (1-435) was cloned from HEK293T cells by PCR and subcloned into pET42. The C-terminal truncated or site-directed mutagenesis for the PIPKIγ661 mutants or talin head was performed using PCR-primer overlap extension with mutagenic primers. PIPKIγ661 mutants were then subcloned into pcDNA3.1 and talin head mutants were subcloned into pET42. His-tagged mouse β1-integrin tail was made using well-established methods (Pfaff, et al. (1998) supra) and subcloned into pET28. The C-terminus of PIPKIγ635 (439-635), PIPKIγ661 (439-661), or the Tyr to Phe mutants of PIPKIγ661 were PCR amplified from the corresponding pcDNA3.1 constructs and subcloned into pET28. […] FAK, FAKTyr397Phe, kinase dead FAK and c-Src constructs were generated using well-known methods.
as §1

GST-talin Lys^357->Gln = GST-talin Lys^357->Gln (Homo sapiens, UniProt Q9Y490, K357Q); conditions: peptide competing His-PIPKIγ661 binding
From the text: as §2, §3, §1

T1 sequence (Q9Y490 1-435): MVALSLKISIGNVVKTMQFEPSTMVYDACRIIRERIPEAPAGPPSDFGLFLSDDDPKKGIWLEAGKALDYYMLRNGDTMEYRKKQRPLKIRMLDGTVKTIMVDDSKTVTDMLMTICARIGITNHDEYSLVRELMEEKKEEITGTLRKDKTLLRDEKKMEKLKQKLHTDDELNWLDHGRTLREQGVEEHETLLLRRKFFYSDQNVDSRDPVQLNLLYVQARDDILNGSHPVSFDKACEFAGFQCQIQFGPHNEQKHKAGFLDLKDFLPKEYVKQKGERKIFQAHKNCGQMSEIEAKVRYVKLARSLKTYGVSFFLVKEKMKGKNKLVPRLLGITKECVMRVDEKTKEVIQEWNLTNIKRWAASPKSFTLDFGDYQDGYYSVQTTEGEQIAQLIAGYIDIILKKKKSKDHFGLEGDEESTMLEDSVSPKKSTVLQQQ
Sequence of GST-talin Lys^357->Gln (Q9Y490 1-435 K357Q): as the sequence (Q9Y490 1-435) above, with K357Q counted along it
Sequence of GST-talin Arg^358->Gln (Q9Y490 1-435 R358Q): as the sequence (Q9Y490 1-435) above, with R358Q counted along it

Molecule: CC(C)(C)n1nc(-c2ccc(Cl)cc2)c2c(N)ncnc21 [PP2]
- FAK-induced tyrosine phosphorylation of PIPKIγ661 (Src family kinases; FAK-induced): dramatically inhibited
- basal tyrosine phosphorylation of PIPKIγ661 (Src family kinases; basal): dramatically inhibited

Molecule: lysophosphatidic acid [LPA, reference compound]
- PIPKIγ661 association with talin (HEK293T cells): restored

Molecule: Cys-Met-Asn-Ala-Lys-Tp-Asp-Thr-Gly-Glu-Asn-Pro-Ile-*Tyr-Lys-Ser-Ala [β1 InpY]
- binding affinity to talin of phosphorylated β1-integrin peptides (GST-talin head): lower binding affinity

Molecule: PDGF
- PIPKIγ661 association with talin (HEK293T cells): restored

Molecule: Cys-Asp-Glu-Arg-Ser-Trp-Val-*Tyr-Ser-Pro-Leu-His-*Tyr-Ser-Ala-Arg [pY644/649]
- binding affinity for talin compared with unphosphorylated peptide PN (GST-talin head): higher binding affinity

Molecule: Cys-Asp-Glu-Arg-Ser-Trp-Val-Tyr-Ser-Pro-Leu-His-*Tyr-Ser-Ala-Arg [pY649]
- binding affinity for talin compared with unphosphorylated peptide PN (GST-talin head): higher binding affinity
- affinity of binding to talin mutant Arg^358->Gln (GST-talin Arg^358->Gln): loss of affinity
- affinity of binding to talin mutant Lys^357->Gln (GST-talin Lys^357->Gln): lower affinity

Molecule: Cys-Asp-Glu-Arg-Ser-Trp-Val-Tyr-Ser-Pro-leu-His-Tyr-Ser-Ala-Arg [PN]
- displacement of His-β1-integrin from GST-talin (GST-talin head; in vitro): poorly displaced

Molecule: Cys-As-Glu-Arg-Ser-Trp-Val-*Tyr-Ser-Pro-Leu-His-Tyr-Ser-Ala-Arg [pY644]
- binding affinity for talin compared with unphosphorylated peptide PN (GST-talin head): higher binding affinity
- affinity of binding to talin mutant Arg^358->Gln (GST-talin Arg^358->Gln): loss of affinity
- affinity of binding to talin mutant Lys^357->Gln (GST-talin Lys^357->Gln): retained high affinity binding

Molecule: Cys-Met-Asn-Ala-Lys-Trp-Asp-*T-Gly-Glu-Asn-Pro-Ile-Tyr-Lys-Ser-Ala [β1InpT]
- binding affinity to talin of phosphorylated β1-integrin peptides (GST-talin head): did not increase binding affinity

B1: His-PIPKIγ661: recombinant His-tagged PIPKIγ661 wild-type C-terminus (439-661) (protein)
chain: MSSTVFRKSSSLKSSPSKKGRGALLAVKPLGPTAAFSASQIPSEREDVQYDLRGARSYPTLEDEGRPDLLPCTPPSFEEATTASIATTLSSTSLSIPERSPSDTSEQPRYRRRTQSSGQDGRPQEEPHAEDLQKITVQVEPVCGVGVVPKEEGAGVEVPPCGASAAASVEIDAASQASEPASQASDEEDAPSTDIYFPTDERSWVYSPLHYSARPASDGESDT
modifications: left off: small tags and cut ends
- competition with His-β1-integrin for binding to GST-talin (GST-talin head; recombinant C-terminus proteins): competed with His-β1-integrin for binding to GST-talin in a dose-dependent manner
